Reference: ChEMBL document CHEMBL1153245, “A profile of the in vitro anti-tumor activity of imidazolium-based ionic liquids” (2010)

How the values were obtained:
Format in all cases: functional
HCT-15 = test: Anticancer activity against human HCT15 cells after 48 hrs by sulforhodamine B assay; conditions: for CC50: read-out: LC50 (the source's name)
SNB-19 = test: Anticancer activity against human SNB19 cells after 48 hrs by sulforhodamine B assay; conditions: for CC50: read-out: LC50 (the source's name)
PC-3 = test: Anticancer activity against human PC3 cells after 48 hrs by sulforhodamine B assay; conditions: for CC50: read-out: LC50 (the source's name)
[1] = Anticancer activity against human […] cells after 48 hrs by sulforhodamine B assay; conditions: for CC50: read-out: LC50 (the source's name)
MDA-MB-435 = test: Anticancer activity against human MDA-MB-435 cells after 48 hrs by sulforhodamine B assay; conditions: for CC50: read-out: LC50 (the source's name)
SF-268 = test: Anticancer activity against human SF268 cells after 48 hrs by sulforhodamine B assay; conditions: for CC50: read-out: LC50 (the source's name)
M14 = test: Anticancer activity against human M14 cells after 48 hrs by sulforhodamine B assay
NCI-H522 = test: Anticancer activity against human NCI-H522 cells after 48 hrs by sulforhodamine B assay
SK-MEL-5 = test: Anticancer activity against human SK-MEL-5 cells after 48 hrs by sulforhodamine B assay; conditions: for CC50: read-out: LC50 (the source's name)
COLO 205 = test: Anticancer activity against human COLO205 cells after 48 hrs by sulforhodamine B assay
SK-OV-3 = test: Anticancer activity against human SKOV3 cells after 48 hrs by sulforhodamine B assay; conditions: for CC50: read-out: LC50 (the source's name)
UACC-257 = test: Anticancer activity against human UACC257 cells after 48 hrs by sulforhodamine B assay
Malme-3M = test: Anticancer activity against human MALME-3M cells after 48 hrs by sulforhodamine B assay
K562 = test: Anticancer activity against human K562 cells after 48 hrs by sulforhodamine B assay
A549 = test: Anticancer activity against human A549 cells after 48 hrs by sulforhodamine B assay
A498 = test: Anticancer activity against human A498 cells after 48 hrs by sulforhodamine B assay; conditions: for CC50: read-out: LC50 (the source's name)
[2] = Anticancer activity against human Hs 578T cells after 48 hrs by sulforhodamine B assay; conditions: for CC50: read-out: LC50 (the source's name)
HCC 2998 = test: Anticancer activity against human HCC2998 cells after 48 hrs by sulforhodamine B assay; conditions: for CC50: read-out: LC50 (the source's name)
T47D = test: Anticancer activity against human T47D cells after 48 hrs by sulforhodamine B assay
HCT-116 = test: Anticancer activity against human HCT116 cells after 48 hrs by sulforhodamine B assay
SK-MEL-28 = test: Anticancer activity against human SK-MEL-28 cells after 48 hrs by sulforhodamine B assay
HOP-62 = test: Anticancer activity against human HOP62 cells after 48 hrs by sulforhodamine B assay; conditions: for CC50: read-out: LC50 (the source's name)
MDA-MB-468 = test: Anticancer activity against human MDA-MB-468 cells after 48 hrs by sulforhodamine B assay
SR = test: Anticancer activity against human SR cells after 48 hrs by sulforhodamine B assay; conditions: for CC50: read-out: LC50 (the source's name)
TK-10 = test: Anticancer activity against human TK10 cells after 48 hrs by sulforhodamine B assay
NCI-H226 = test: Anticancer activity against human NCI-H226 cells after 48 hrs by sulforhodamine B assay
MOLT-4 = test: Anticancer activity against human MOLT4 cells after 48 hrs by sulforhodamine B assay
OVCAR-5 = test: Anticancer activity against human OVCAR5 cells after 48 hrs by sulforhodamine B assay; conditions: for CC50: read-out: LC50 (the source's name)
RXF 393 = test: Anticancer activity against human RXF393 cells after 48 hrs by sulforhodamine B assay
OVCAR-4 = test: Anticancer activity against human OVCAR4 cells after 48 hrs by sulforhodamine B assay; conditions: for CC50: read-out: LC50 (the source's name)
SF-539 = test: Anticancer activity against human SF539 cells after 48 hrs by sulforhodamine B assay; conditions: Homo sapiens, SF-539, 48 h

In the case of `CCCCCCCCCCCCCCCCCC[n+]1ccn(C)c1.F[P-](F)(F)(F)(F)F`, the GI50 (HCT-15) is reported as 1.01 µM, the CC50 (HCT-15) is reported as 4.66 µM and the GI50 (SNB-19) is reported as 1.45 µM. For the same compound, the CC50 (SNB-19) was 7.89 µM, the GI50 (PC-3) was 0.286 µM and the CC50 (PC-3) was 3.54 µM. It also gave a GI50 [1] of 0.017 µM, a CC50 [1] of 0.811 µM and a GI50 (MDA-MB-435) of 0.851 µM. It also gave a CC50 (MDA-MB-435) of 6.64 µM, a GI50 (SF-268) of 1.26 µM and a CC50 (SF-268) of 6.06 µM. It also gave a GI50 (M14) of 0.424 µM, an LC50 (50% lethal concentration) (M14) of 6.25 µM and a GI50 (NCI-H522) of 1.16 µM. The LC50 (NCI-H522) was 6.77 µM, the GI50 (SK-MEL-5) was 0.617 µM and the CC50 (SK-MEL-5) was 4.37 µM. It also gave a GI50 (COLO 205) of 0.389 µM, a GI50 (SK-OV-3) of 1.81 µM and a CC50 (SK-OV-3) of 4.2 µM. It also gave a GI50 (UACC-257) of 1.69 µM, an LC50 (UACC-257) of 9.66 µM and a GI50 (Malme-3M) of 1.02 µM. The LC50 (concentration killing 50% of cells) (Malme-3M) was 7.69 µM, the GI50 (K562) was 0.935 µM and the LC50 (concentration killing 50% of cells) (A549) was 9.37 µM. The GI50 (A498) was 1.15 µM, the CC50 (A498) was 7.55 µM and the GI50 [2] was 0.536 µM. The CC50 [2] was 6.15 µM, the GI50 (HCC 2998) was 0.293 µM and the CC50 (HCC 2998) was 5.87 µM. For the same compound, the GI50 (T47D) was 0.719 µM, the GI50 (HCT-116) was 0.411 µM and the LC50 (SK-MEL-28) was 5.16 µM. It also gave a GI50 (HOP-62) of 1.45 µM, a CC50 (HOP-62) of 7.77 µM and a GI50 (MDA-MB-468) of 0.159 µM. The LC50 (MDA-MB-468) was 5.11 µM, the GI50 (SR) was 1.85 µM and the CC50 (SR) was over 100 µM. It also gave a GI50 (TK-10) of 0.463 µM, an LC50 (TK-10) of 4.76 µM and a GI50 (NCI-H226) of 1.17 µM. The LC50 (NCI-H226) was 5.74 µM, the GI50 (MOLT-4) was 0.589 µM and the LC50 (MOLT-4) was over 100 µM. The GI50 (OVCAR-5) was 1.08 µM, the CC50 (OVCAR-5) was 7.24 µM and the GI50 (RXF 393) was 0.467 µM. The LC50 (RXF 393) was 5.98 µM, the GI50 (OVCAR-4) was 1.03 µM and the CC50 (OVCAR-4) was 6.33 µM.
Work on `CCCCCCCCCCCC[n+]1ccn(C)c1.[Cl-]` yielded a GI50 (HCT-15; Homo sapiens, HCT-15, 48 h) of 20.8 µM, a CC50 (HCT-15; Homo sapiens, HCT-15, 48 h) of over 100 µM and a GI50 (SNB-19; Homo sapiens, SNB-19, 48 h) of 6.76 µM. It also gave a CC50 (SNB-19; Homo sapiens, SNB-19, 48 h) of over 100 µM, a GI50 (PC-3; Homo sapiens, PC-3, 48 h) of 1.82 µM and a CC50 (PC-3; Homo sapiens, PC-3, 48 h) of over 100 µM. It also gave a GI50 [1] of 0.109 µM, a CC50 ([1]; Homo sapiens, RPMI8266, 48 h) of 6.13 µM and a GI50 (MDA-MB-435; Homo sapiens, MDA-MB-435, 48 h) of 1.79 µM. For the same compound, the CC50 (MDA-MB-435; Homo sapiens, MDA-MB-435, 48 h) was 69.1 µM, the GI50 (SF-268; Homo sapiens, SF-268, 48 h) was 4.68 µM and the CC50 (SF-268; Homo sapiens, SF-268, 48 h) was over 100 µM. It also gave a GI50 (M14) of 1.92 µM, a GI50 (NCI-H522; Homo sapiens, NCI-H522, 48 h) of 2.37 µM and a GI50 (SK-MEL-5; Homo sapiens, SK-MEL-5, 48 h) of 1.22 µM. For the same compound, the CC50 (SK-MEL-5) was 7.8 µM, the GI50 (COLO 205; Homo sapiens, COLO 205, 48 h) was 2.62 µM and the CC50 (COLO 205; Homo sapiens, COLO 205, 48 h, read-out: LC50 (the source's name)) was over 100 µM. For the same compound, the GI50 (SK-OV-3; Homo sapiens, SK-OV-3, 48 h) was 4.76 µM, the CC50 (SK-OV-3; Homo sapiens, SK-OV-3, 48 h) was over 100 µM and the GI50 (UACC-257; Homo sapiens, UACC-257, 48 h) was 1.68 µM. It also gave a GI50 (Malme-3M; Homo sapiens, Malme-3M, 48 h) of 4.96 µM, a GI50 (K562; Homo sapiens, K562, 48 h) of 0.498 µM and a CC50 (K562; Homo sapiens, K562, 48 h, read-out: LC50 (the source's name)) of over 100 µM. For the same compound, the GI50 (A549; Homo sapiens, A549, 48 h) was 5.92 µM, the GI50 (A498; Homo sapiens, A498, 48 h) was 4.28 µM and the CC50 (A498; Homo sapiens, A498, 48 h) was over 100 µM. The GI50 ([2]; Homo sapiens, Hs-578T, 48 h) was 3.13 µM, the CC50 ([2]; Homo sapiens, Hs-578T, 48 h) was over 100 µM and the GI50 (HCC 2998) was 1.89 µM. For the same compound, the CC50 (HCC 2998; Homo sapiens, HCC 2998, 48 h) was over 100 µM, the GI50 (T47D; Homo sapiens, T47D, 48 h) was 4.29 µM and the CC50 (T47D; Homo sapiens, T47D, 48 h, read-out: LC50 (the source's name)) was over 100 µM. The GI50 (HCT-116; Homo sapiens, HCT-116, 48 h) was 3.59 µM, the CC50 (HCT-116; Homo sapiens, HCT-116, 48 h, read-out: LC50 (the source's name)) was over 100 µM and the GI50 (SK-MEL-28) was 4.57 µM. For the same compound, the GI50 (HOP-62; Homo sapiens, HOP-62, 48 h) was 4.86 µM, the CC50 (HOP-62; Homo sapiens, HOP-62, 48 h) was over 100 µM and the GI50 (MDA-MB-468; Homo sapiens, MDA-MB-468, 48 h) was 0.384 µM. For the same compound, the GI50 (SR; Homo sapiens, SR, 48 h) was 0.597 µM, the CC50 (SR; Homo sapiens, SR, 48 h) was 97.6 µM and the GI50 (TK-10; Homo sapiens, TK-10, 48 h) was 1.92 µM. It also gave a GI50 (NCI-H226; Homo sapiens, NCI-H226, 48 h) of 3.55 µM, a GI50 (MOLT-4; Homo sapiens, MOLT-4, 48 h) of 2.9 µM and a GI50 (OVCAR-5; Homo sapiens, OVCAR-5, 48 h) of 3.75 µM. The CC50 (OVCAR-5; Homo sapiens, OVCAR-5, 48 h) was over 100 µM, the GI50 (SF-539) was 2.72 µM and the GI50 (RXF 393; Homo sapiens, RXF 393, 48 h) was 5.9 µM. For the same compound, the GI50 (OVCAR-4; Homo sapiens, OVCAR-4, 48 h) was 3.17 µM and the CC50 (OVCAR-4; Homo sapiens, OVCAR-4, 48 h) was over 100 µM.
